# Reference: the NIST ThermoML archive (doi:10.1021/acs.jced.6b00700)
# Numbers after ± are expanded uncertainties.
# Experiments:
# [1] = Liquid, Ebulliometric method (Recirculating still)
# [2] = refractive index (Na D-line) (dimensionless); details: 293 K; 96.15 kPa; Liquid; Standard Abbe refractometry
# [3] = refractive index (Na D-line) (dimensionless); xn = mol fraction of the nth substance listed; details: 293 K, 96.15 kPa, Liquid, Standard Abbe refractometry
smiles,measurement,setting,value
CC(C)O [propan-2-ol],vapor or sublimation pressure,[1]; 354.17 K,96.15 ± 0.98 kPa
same,refractive index,[2],1.3758 ± 0.004
Nc1ccccc1 [aniline],vapor or sublimation pressure,[1]; 455.4 K,96.15 ± 0.99 kPa
same,refractive index,[2],1.5868 ± 0.004
CC(=O)O [acetic acid] + COc1ccccc1,refractive index,[3]; x1 = 1,1.3724 ± 0.004
CC(C)=O [acetone],vapor or sublimation pressure,[1]; 327.9 K,96.15 ± 0.98 kPa
same,refractive index,[2],1.3606 ± 0.004
COc1ccccc1 [anisole] + CC(C)O,refractive index,[3]; x2 = 0,1.5175 ± 0.004
same,refractive index,[3]; x2 = 0.0879,1.5092 ± 0.004
same,refractive index,[3]; x2 = 0.1663,1.5011 ± 0.004
same,refractive index,[3]; x2 = 0.3122,1.484 ± 0.004
same,refractive index,[3]; x2 = 0.4359,1.4688 ± 0.004
same,refractive index,[3]; x2 = 0.5438,1.4543 ± 0.004
same,refractive index,[3]; x2 = 0.6429,1.4403 ± 0.004
same,refractive index,[3]; x2 = 0.7293,1.4272 ± 0.004
same,refractive index,[3]; x2 = 0.8063,1.4143 ± 0.004
same,refractive index,[3]; x2 = 0.879,1.4019 ± 0.004
same,refractive index,[3]; x2 = 0.9372,1.3911 ± 0.004
same,refractive index,[3]; x2 = 0.9693,1.3861 ± 0.004
Nc1ccccc1 [aniline] + CN(C)C=O,refractive index,[3]; x2 = 0,1.5868 ± 0.004
same,refractive index,[3]; x2 = 0.0624,1.5795 ± 0.004
same,refractive index,[3]; x2 = 0.1252,1.5723 ± 0.004
same,refractive index,[3]; x2 = 0.2423,1.5575 ± 0.004
same,refractive index,[3]; x2 = 0.3527,1.543 ± 0.004
same,refractive index,[3]; x2 = 0.459,1.5267 ± 0.004
same,refractive index,[3]; x2 = 0.5592,1.5119 ± 0.004
same,refractive index,[3]; x2 = 0.6561,1.4975 ± 0.004
same,refractive index,[3]; x2 = 0.7474,1.4799 ± 0.004
same,refractive index,[3]; x2 = 0.8363,1.4638 ± 0.004
same,refractive index,[3]; x2 = 0.9206,1.4477 ± 0.004
same,refractive index,[3]; x2 = 0.9602,1.4401 ± 0.004
COc1ccccc1 [anisole] + CC(=O)O,refractive index,[3]; x2 = 0,1.5175 ± 0.004
same,refractive index,[3]; x2 = 0.0875,1.5107 ± 0.004
same,refractive index,[3]; x2 = 0.167,1.503 ± 0.004
same,refractive index,[3]; x2 = 0.3109,1.4878 ± 0.004
same,refractive index,[3]; x2 = 0.4358,1.4731 ± 0.004
same,refractive index,[3]; x2 = 0.5453,1.4584 ± 0.004
same,refractive index,[3]; x2 = 0.6416,1.4441 ± 0.004
same,refractive index,[3]; x2 = 0.7302,1.4295 ± 0.004
same,refractive index,[3]; x2 = 0.8075,1.4155 ± 0.004
same,refractive index,[3]; x2 = 0.877,1.4018 ± 0.004
same,refractive index,[3]; x2 = 0.9413,1.3874 ± 0.004
same,refractive index,[3]; x2 = 0.9711,1.3807 ± 0.004
CC(=O)O [acetic acid],vapor or sublimation pressure,[1]; 388.91 K,96.15 ± 0.98 kPa
same,refractive index,[2],1.3724 ± 0.004
CC(C)O [propan-2-ol] + COc1ccccc1,refractive index,[3]; x1 = 1,1.3758 ± 0.004
CN(C)C=O [dimethylformamide] + Nc1ccccc1,refractive index,[3]; x1 = 1,1.4318 ± 0.004
CC(C)=O [acetone] + COc1ccccc1,refractive index,[3]; x1 = 1,1.3606 ± 0.004
COc1ccccc1 [anisole],vapor or sublimation pressure,[1]; 424.55 K,96.15 ± 0.99 kPa
same,vapor or sublimation pressure,[1]; 424.61 K,96.15 ± 0.99 kPa
same,vapor or sublimation pressure,[1]; 424.79 K,96.15 ± 0.99 kPa
same,refractive index,[2],1.5175 ± 0.004
CN(C)C=O [dimethylformamide],vapor or sublimation pressure,[1]; 424.53 K,96.15 ± 0.99 kPa
same,vapor or sublimation pressure,[1]; 424.6 K,96.15 ± 0.99 kPa
same,refractive index,[2],1.4318 ± 0.004
COc1ccccc1 [anisole] + CC(C)=O,refractive index,[3]; x2 = 0,1.5175 ± 0.004
same,refractive index,[3]; x2 = 0.0888,1.5095 ± 0.004
same,refractive index,[3]; x2 = 0.1723,1.4998 ± 0.004
same,refractive index,[3]; x2 = 0.3184,1.4879 ± 0.004
same,refractive index,[3]; x2 = 0.4448,1.4709 ± 0.004
same,refractive index,[3]; x2 = 0.5541,1.459 ± 0.004
same,refractive index,[3]; x2 = 0.6508,1.4441 ± 0.004
same,refractive index,[3]; x2 = 0.736,1.4285 ± 0.004
same,refractive index,[3]; x2 = 0.8121,1.406 ± 0.004
same,refractive index,[3]; x2 = 0.8816,1.3923 ± 0.004
same,refractive index,[3]; x2 = 0.9434,1.3746 ± 0.004
same,refractive index,[3]; x2 = 0.9725,1.3678 ± 0.004
